Experimental data from patent US20130315843A1, “COMPOSITION FOR REDUCTION OF TRPA1 AND TRPV1 SENSATIONS” (priority 2012, published 2013).
Structures can show the parent of a compound that is named as a salt. Where two headings read alike, the source gives them in different places.

Experiments:
[1] = molecular target: human TRPA1 (Homo sapiens, UniProt O75762); assay: FLIPR Ca2+ assay, reduction of L-Menthol activation of TRPA1
Experimental: In order to determine whether TRPA1 is activated, the intracellular calcium ion (Ca^2+) level from transfected cells with the TRPA1 receptor gene was measured. HEK-2 cells stably transfected with human TRPA1 were grown in 15 ml growth medium [high glucose DMEM (Dulbecco's Modification of Eagle's Medium) supplemented with 10% FBS (fetal bovine serum), 100 μg/ml Penicillin/streptomycin, 100 μg/ml G418] in a 75 Cm^2 flask for 3 days at 37° C. in a mammalian cell culture incubator set at 5% CO2. Cells were detached with addition of 10 ml of PBS (phosphate buffered saline) by hand shaking gently and transferred to a 50 ml tube and centrifuged at 850 rpm for 3 minutes to remove PBS. After centrifugation, a pellet of cells was formed in the bottom of the tube separating them from the supernatant solution. […] Fluo-4 is a fluorescent dye used for quantifying cellular Ca^2+ concentrations in the 100 nM to 1 μM range.
The pelleted cells were re-suspended in 10 ml assay buffer and 90 μl aliquots (˜50,000 cells) per well delivered to a 96-well assay plate containing 10 μl of test compounds (1 mM in assay buffer, final concentration 100 μM) or buffer control and incubated at room temperature for 30 minutes. After 30 minutes, the plate was placed into a fluorometric imaging plate reader (FLIPR384 from Molecular Devices) and basal fluorescence recorded (excitation wave length 488 nm and emission wave length 510 nm). Then 20 μl of the molecule being tested as a TRPA1 antagonist was added and fluorescence recorded. For determining the direct effect of test compounds on TRPA1, fluorescence was measured immediately after addition of each compound.
To determine if a compound was an antagonist or a desensitizer the direct effect of a test compound was determined. For determining the direct effect of test compounds on TRPA1 receptor activation, 100 μl aliquots (˜50,000 cells) of cells prepared as described above were delivered to a 96-well assay plate and basal fluorescence recorded as noted above. Then 20 μl of the compound being tested as a TRPA1 activator was added and fluorescence recorded. If any increase in fluorescence over background was noted, then the compound was considered an agonist.

[2] = molecular target: human TRPV1 (Homo sapiens, UniProt Q8NER1); assay: FLIPR Ca2+ assay, reduction of L-Menthol activation of TRPV1; conditions: for inhibition at 100 µM: read-out: % Reduction of L-Menthol TRPV1 Activation
Experimental: To determine whether TRPV1 was activated, the intracellular calcium ion (Ca^+2) levels from cells transfected with the TRPV1 receptor gene was measured. HEK-239 cells stably transfected with human TRPV1 were grown in 15 ml growth medium [high glucose DMEM (Dulbecco's Modification of Eagle's Medium) supplemented with 10% FBS (fetal bovine serum), 100 g/ml Penicillin/streptomycin, 100 g/ml G418] in a 75 Cm2 flask for 3 days at 33° C. in a mammalian cell culture incubator set at 5% CO2. Cells were detached with addition of 10 ml of PBS (phosphate buffered saline) by hand shaking gently. Cells were transferred to a 50 ml tube and centrifuged at 850 rpm for 3 minutes to remove PBS. After centrifugation, a pellet of cells formed in the bottom of the tube separating them from the supernatant solution. The supernatant was discarded and the cell pellet suspended in 1 ml of fresh growth medium to which 5 μl (12.5 g) of Fluo-4 AM (Molecular Probes, Inc., Eugene, Oreg.) calcium indicator was added and incubated for 30 minutes with gentle shaking.
The pelleted cells were re-suspended in 10 ml assay buffer and 90 μl aliquots (˜50,000 cells) per well delivered to a 96-well assay plate containing 10 μl of test compounds (1 mM in assay buffer, final concentration 100 μM) or buffer control and incubated at room temperature for 30 minutes. After 30 minutes, the plate was placed into a fluorometric imaging plate reader (FLIPR384 from Molecular Devices) and basal fluorescence recorded (excitation wave length 488 nm and emission wave length 510 nm). Then 20 μl of the compound being tested as a TRPV1 receptor activator was added and fluorescence recorded. […] It may be no difference (no effect), or negative (means antagonist or desensitizer) or positive (enhancer, also known as positive allosteric modulator). […] To determine if a compound was an antagonist or a desensitizer, the direct effect of a test compound was determined. For determining the direct effect of test compounds on TRPV1, 100 μl aliquots (˜50,000 cells) of cells prepared as described above were delivered to a 96-well assay plate and basal fluorescence recorded as noted above. Then 20 μl of the compound being tested as a TRPV1 receptor activator was added and fluorescence recorded. If any increase in fluorescence over background was noted, then the compound was considered an agonist. The agonist activity was expressed relative to that observed with a benchmark agonist such as 350 nM Capsaicin for TRPV1.
100 μM of antagonist was tested against 1 mM of L-Menthol to determine the level of reduced TRPV1 receptor activation by L-Menthol. Each antagonist compound was run with 1 mM of L-Menthol as a control and the antagonist activity of each compound was determined by comparing the Ca^2+ levels of the control with the antagonist compound being tested.

[3] = 100 μM antagonist vs 1 mM L-Menthol
[4] = antagonist 100 μM against 1 mM L-Menthol

human TRPV1, sequence (Q8NER1 whole entry): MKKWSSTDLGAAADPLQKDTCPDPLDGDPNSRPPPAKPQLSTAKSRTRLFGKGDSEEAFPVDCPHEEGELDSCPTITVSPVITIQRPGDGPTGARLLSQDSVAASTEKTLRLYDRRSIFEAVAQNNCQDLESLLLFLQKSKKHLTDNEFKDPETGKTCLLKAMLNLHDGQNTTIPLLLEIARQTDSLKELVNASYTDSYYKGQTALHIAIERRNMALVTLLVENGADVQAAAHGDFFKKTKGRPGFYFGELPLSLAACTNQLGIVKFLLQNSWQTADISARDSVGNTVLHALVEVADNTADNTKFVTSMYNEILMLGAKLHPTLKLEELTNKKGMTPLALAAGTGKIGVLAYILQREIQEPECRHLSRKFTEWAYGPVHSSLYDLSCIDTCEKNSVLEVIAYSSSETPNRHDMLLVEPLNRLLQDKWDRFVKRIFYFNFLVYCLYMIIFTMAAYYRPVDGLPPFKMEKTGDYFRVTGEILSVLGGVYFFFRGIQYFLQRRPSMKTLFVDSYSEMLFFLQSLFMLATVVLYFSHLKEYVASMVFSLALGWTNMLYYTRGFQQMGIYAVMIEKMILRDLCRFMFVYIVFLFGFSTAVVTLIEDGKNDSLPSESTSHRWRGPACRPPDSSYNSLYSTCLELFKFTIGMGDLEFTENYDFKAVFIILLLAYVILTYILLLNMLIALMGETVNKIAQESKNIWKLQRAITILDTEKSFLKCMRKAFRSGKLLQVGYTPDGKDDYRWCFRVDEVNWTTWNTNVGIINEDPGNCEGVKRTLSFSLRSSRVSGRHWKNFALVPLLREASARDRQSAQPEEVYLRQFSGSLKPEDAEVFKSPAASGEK
human TRPA1, sequence (O75762 whole entry): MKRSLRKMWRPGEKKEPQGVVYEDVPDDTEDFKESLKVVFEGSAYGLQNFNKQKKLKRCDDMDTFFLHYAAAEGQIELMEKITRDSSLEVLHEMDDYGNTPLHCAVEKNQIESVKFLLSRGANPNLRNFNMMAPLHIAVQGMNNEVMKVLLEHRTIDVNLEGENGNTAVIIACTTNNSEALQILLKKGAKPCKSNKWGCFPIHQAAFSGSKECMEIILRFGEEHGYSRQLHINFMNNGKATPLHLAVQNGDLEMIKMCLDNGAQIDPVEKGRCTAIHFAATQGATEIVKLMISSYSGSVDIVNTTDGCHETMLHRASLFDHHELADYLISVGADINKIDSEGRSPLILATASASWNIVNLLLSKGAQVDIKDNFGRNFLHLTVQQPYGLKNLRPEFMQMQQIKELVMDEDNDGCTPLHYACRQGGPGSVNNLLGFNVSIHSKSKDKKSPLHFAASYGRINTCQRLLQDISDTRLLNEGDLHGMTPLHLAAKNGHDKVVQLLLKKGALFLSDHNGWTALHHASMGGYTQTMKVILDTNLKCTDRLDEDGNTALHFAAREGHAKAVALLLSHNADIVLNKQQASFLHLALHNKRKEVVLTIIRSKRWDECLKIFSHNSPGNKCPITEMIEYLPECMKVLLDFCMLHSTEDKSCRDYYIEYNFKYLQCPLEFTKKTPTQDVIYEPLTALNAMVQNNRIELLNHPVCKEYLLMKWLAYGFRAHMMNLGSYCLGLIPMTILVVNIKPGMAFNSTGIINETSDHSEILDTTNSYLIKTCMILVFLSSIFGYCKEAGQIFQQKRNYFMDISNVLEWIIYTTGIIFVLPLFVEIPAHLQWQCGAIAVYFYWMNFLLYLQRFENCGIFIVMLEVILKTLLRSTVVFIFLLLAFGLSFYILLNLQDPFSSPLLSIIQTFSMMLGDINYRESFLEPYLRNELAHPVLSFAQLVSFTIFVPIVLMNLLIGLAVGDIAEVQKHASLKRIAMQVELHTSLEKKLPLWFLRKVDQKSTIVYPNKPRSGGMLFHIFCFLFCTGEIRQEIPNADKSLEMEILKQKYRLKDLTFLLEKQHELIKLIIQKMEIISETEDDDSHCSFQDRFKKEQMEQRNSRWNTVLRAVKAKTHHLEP

| Molecule | Block of L-Menthol activation of TRPA1 [1, 3] | % Reduction of L-Menthol TRPV1 Activation [2, 4] [%] | Average Ca2+ Counts [2, 4] [Counts] | inhibition at 100 µM [2] [%] | Block of L-Menthol activation of TRPA1 [1] | % Reduction of L-Menthol TRPV1 Activation [2] [%] | Average Ca2+ Counts [2] [Counts] |
| --- | --- | --- | --- | --- | --- | --- | --- |
| CC(=O)C=O [pyruvic aldehyde] | BLOCK ONLY MENTHOL/TRPA1 | 22.3 | 1504.0 | – | – | – | – |
| C=CCSCC=C [diallyl sulfide] | BLOCK ONLY MENTHOL/TRPA1 | – | 1293.3 | 32.1 | – | – | – |
| O=C(C=Cc1ccccc1)OCC=Cc1ccccc1 [3-phenyl-2-propen-1-yl 3-phenylacrylate] | BLOCK ONLY MENTHOL/TRPA1 | – | 3377.0 | 47.2 | – | – | – |
| C=C[C@H]1C[N@@]2CC[C@H]1C[C@H]2[C@H](O)c1ccnc2ccc(OC)cc12 [quinine hydrochloride dihydrate] | BLOCK ONLY MENTHOL/TRPA1 | – | 1505.3 | 22.3 | – | – | – |
| CCC/C=C/COC(C)=O [trans-2-hexenyl acetate] | BLOCK ONLY MENTHOL/TRPA1 | – | 1119.0 | 40.2 | – | – | – |
| C=Cc1scnc1C [4-methyl-5-vinylthiazole] | BLOCK ONLY MENTHOL/TRPA1 | – | 1227.7 | 35.1 | – | – | – |
| CCCCCCCCSC [methyl n-octyl sulfide] | BLOCK ONLY MENTHOL/TRPA1 | – | 1120.3 | 40.1 | – | – | – |
| C=CCOC(=O)CCCCCCC [allyl caprylate] | BLOCK ONLY MENTHOL/TRPA1 | – | 2572.0 | 44.6 | – | – | – |
| CC(C)=CCCC(C)CCOC=O (stereo not drawn) [citronellyl formate] | BLOCK ONLY MENTHOL/TRPA1 | – | 1097.0 | 41.2 | – | – | – |
| CCCOC(=O)CCCCC(=O)OCCC [hexanedioic acid, dipropyl ester] | BLOCK ONLY MENTHOL/TRPA1 | – | 2964.0 | 26.6 | – | – | – |
| COc1ccccc1C=O [2-methoxybenzaldehyde] | BLOCK ONLY MENTHOL/TRPA1 | – | 1050.3 | 43.3 | – | – | – |
| O=C(O)c1ccc(O)c(O)c1 [3,4-dihydroxybenzoic acid] | BLOCK ONLY MENTHOL/TRPA1 | – | 1539.7 | 20.7 | – | – | – |
| CCCOC(C)OCCc1ccccc1 (stereo not drawn) [2-(1-propoxyethoxy)ethylbenzene] | BLOCK ONLY MENTHOL/TRPA1 | – | 1480.7 | 23.4 | – | – | – |
| CCOC(=O)C1OC1c1ccccc1 (stereo not drawn) [ethyl 3-phenylglycidate] | BLOCK ONLY MENTHOL/TRPA1 | 50.8 | 1987.0 | – | – | – | – |
| CCCC/C=C\CCO [cis-3-octen-1-ol] | BLOCK ONLY MENTHOL/TRPA1 | – | 1424.7 | 26 | – | – | – |
| CCCCCCCC/C=C\CCCCCCCC(=O)OCC [ethyl oleate] | BLOCK ONLY MENTHOL/TRPA1 | – | 1431.3 | 25.7 | – | – | – |
| O=C(Nc1ccccc1C(=O)O)c1ccccc1 [2-benzoylamino-benzoic acid] | BLOCK ONLY MENTHOL/TRPA1 | – | 1207.7 | 36.1 | – | – | – |
| CCCOC(=O)C(C)=O [propyl pyruvate] | BLOCK ONLY MENTHOL/TRPA1 | – | 2386.5 | 40.9 | – | – | – |
| CCOC(=O)CCc1ccco1 [ethyl 3-(2-furyl)propionate] | BLOCK ONLY MENTHOL/TRPA1 | – | 4446.5 | 30.5 | – | – | – |
| CC(=O)c1nccs1 [2-acetylthiazole] | BLOCK ONLY MENTHOL/TRPA1 | – | 3569.5 | 23.1 | – | – | – |
| C[N+](C)(C)CCO.O=C([O-])C(O)C(O)C(=O)O (stereo not drawn) [choline bitartrate] | – | – | – | – | BLOCK ONLY MENTHOL/TRPA1 | 39.1 | 1141.3 |

| Molecule | Block of L-Menthol activation of TRPA1 [1, 3] | % Reduction of L-Menthol TRPV1 Activation [2, 4] [%] | Average Ca2+ Counts [2, 4] [Counts] | inhibition at 100 µM [2] [%] | Block of L-Menthol activation of TRPA1 [1] | % Reduction of L-Menthol TRPV1 Activation [2] [%] | Average Ca2+ Counts [2] [Counts] |
| --- | --- | --- | --- | --- | --- | --- | --- |
| CCc1nccnc1OC [2-ethyl-3-methoxypyrazine] | BLOCK ONLY MENTHOL/TRPA1 | – | 1432.7 | 25.7 | – | – | – |
| COc1cc(C)cc(OC)c1O [4-methyl-2,6-dimethoxyphenol] | BLOCK ONLY MENTHOL/TRPA1 | – | 1292.3 | 32.1 | – | – | – |
| iron naphthenate | BLOCK ONLY MENTHOL/TRPA1 | 31.9 | 2748.5 | – | – | – | – |
| CCCCCCCC=O [octanal] | BLOCK ONLY MENTHOL/TRPA1 | – | 2759.0 | 31.6 | – | – | – |
| Cc1cnc(C)cn1 [2,5-dimethylpyrazine] | BLOCK ONLY MENTHOL/TRPA1 | – | 1040.0 | 43.8 | – | – | – |
| COC(=O)CCSC [methyl 3-(methylthio)propionate] | BLOCK ONLY MENTHOL/TRPA1 | – | 998.7 | 45.7 | – | – | – |
| CCCCCCCCO [1-octanol] | BLOCK ONLY MENTHOL/TRPA1 | – | 1442.3 | 25.2 | – | – | – |
| CCCCCC(=O)OCC(C)C [isobutyl hexanoate] | BLOCK ONLY MENTHOL/TRPA1 | – | 3443.5 | 25.8 | – | – | – |
| Cc1ccc(C(C)C)cc1 [1-isopropyl-4-methylbenzene] | BLOCK ONLY MENTHOL/TRPA1 | – | 1112.7 | 40.5 | – | – | – |
| CCCCC/C=C/CCC(=O)OCC [ethyl trans-4-decenoate] | BLOCK ONLY MENTHOL/TRPA1 | – | 1454.3 | 24.6 | – | – | – |
| CC(=O)c1ccccc1O [2′-hydroxyacetophenone] | BLOCK ONLY MENTHOL/TRPA1 | – | 1083.3 | 41.8 | – | – | – |
| CC1(C)C2CC[C@@]1(C)C(=O)C2 [(1r)-(+)-camphor] | BLOCK ONLY MENTHOL/TRPA1 | – | 2807.0 | 30.5 | – | – | – |
| O=COCc1ccccc1 [benzyl formate] | BLOCK ONLY MENTHOL/TRPA1 | – | 2923.5 | 27.6 | – | – | – |
| CC(C)CC(=O)Cc1ccccc1 [4-methyl-1-phenyl-2-pentanone] | BLOCK ONLY MENTHOL/TRPA1 | – | 2707.0 | 32.9 | – | – | – |
| CCC/C=C/C(=O)OCC [ethyl trans-2-hexenoate] | BLOCK ONLY MENTHOL/TRPA1 | – | 1102.7 | 40.9 | – | – | – |
| CC(=O)C(=O)CC(C)C [5-methyl-2,3-hexanedione] | BLOCK ONLY MENTHOL/TRPA1 | – | 2968.5 | 26.4 | – | – | – |
| CCC/C=C/COC(=O)CC [propionic acid trans-2-hexen-1-yl ester] | BLOCK ONLY MENTHOL/TRPA1 | – | 1128.3 | 39.7 | – | – | – |
| CCCCOC(=O)CCCCCCCCC(=O)OCCCC [dibutyl sebacate] | BLOCK ONLY MENTHOL/TRPA1 | – | 1398.0 | 27.3 | – | – | – |
| CCOC(=O)C(=O)CC(=O)CC [ethyl 2,4-dioxohexanoate] | BLOCK ONLY MENTHOL/TRPA1 | – | 1000.3 | 45.7 | – | – | – |
| CCOC(=O)C(Cc1ccccc1)C(C)=O (stereo not drawn) [ethyl 2-benzylacetoacetate] | BLOCK ONLY MENTHOL/TRPA1 | – | 1548.3 | 20.3 | – | – | – |
| CC(=O)OCCC(C)S (stereo not drawn) [3-mercaptobutyl acetate] | BLOCK ONLY MENTHOL/TRPA1 | – | 1061.3 | 42.8 | – | – | – |
